From publication PMC12339328, “Therapeutic effect and mechanism of gigantol on hyperuricemia” (Frontiers in Endocrinology, 2025)
Several values for one entry are separate records, joined by “and”; a condition that tells them apart may be missing. Equal values may be shown once. Entries after “also recorded” stand apart in the source; their conditions may differ. Read-outs that look alike come from different tables or passages of the source.

Tests used:
OAT3 = OAT3 protein expression in HK-2 cells (Western blot); conditions: for OAT3 / β (reference protein) ratio / OAT3 protein expression, band value: HK-2, replicates 1-3
IL-6 [1] = test: IL-6 level in serum and kidney of HUA mice (ELISA); type: in vivo; conditions: HUA mice treated with gigantol; vs model group; p < 0.01
Method: (§1) Blood obtained from mice in each group was centrifuged at 3,000 r/min for 15 min in a low-temperature high-speed centrifuge. Then, the serum was separated, and the levels of UA, CRE, and BUN in the serum were measured by the kits. The levels of TNF-α, IL-1β, IL-6, and NLRP3 in serum were detected by ELISA kits. Liver and kidney tissues were homogenized by adding ice-cold saline, and homogenates were centrifuged at 12,000 r/min for 10 min. XOD activity in the supernatant of the liver tissues was measured, and the levels of TNF-α, IL-1β, IL-6, and NLRP3 in the supernatant of the kidney tissues were measures by ELISA kits.

caspase-1 [2] = test: Caspase-1 protein expression in kidney of HUA mice (Western blot); type: in vivo; conditions: gigantol high-dose group (20 mg/kg), vs model group, p < 0.001
[3] = system: renal tissue in mice with HUA; test: Renal histopathology of HUA mice (HE staining); type: in vivo; conditions: 200×, gigantol-treated groups
Excerpt: (§2) The kidney and liver tissues were fixed with 4% paraformaldehyde solution. After paraffin embedding and sectioning, the paraffin on the slide was removed with xylene and soaked in different concentrations of ethanol and deionized water. The liver and kidney tissues were stained according to the HE staining procedure, and then the morphology of the kidney tissues and liver tissues was observed under the microscope.

XOD [4] = conditions: for xod / β (reference protein) ratio / xod protein expression, band value: AML12, replicates 1-3; for XOD protein expression in AML12 cells: HUA cell model, gigantol 25, 50, 100 µmol/L, vs model group, p < 0.001
TNF-α = TNF-α level in HK-2 HUA cell model (ELISA); type: cell-based, human; conditions: adenosine and XOD induction; gigantol 25, 50, 100 μmol/L
Method: (§3) HK-2 cells were treated as described above. The supernatant of the medium was collected, and the levels of proinflammatory cytokines (TNF-α, IL-6, and IL-1β) and the NLRP3 inflammasome component in the supernatant were detected using commercially available ELISA kits according to the manufacturers’ protocols.

AML12 cells = test: UA level in AML12 HUA cell model; type: cell-based, mouse; conditions: adenosine + XOD induced; gigantol 25, 50, 100 μmol/L; p < 0.001
IL-1β [5] = test: IL-1β content in serum and kidney of HUA mice (ELISA); type: in vivo; conditions: gigantol low, medium, high dose intragastric, vs model group
Method: as §1

XOD [6] = conditions: HUA cell model; gigantol 25, 50, 100 μmol/L, dose-dependent; vs model; p < 0.05, p < 0.001, p < 0.001
ASC [7] = test: ASC protein expression in kidney of HUA mice (Western blot); type: in vivo; conditions: gigantol high-dose group (20 mg/kg), vs model group, p < 0.001
IL-1β [8] = test: IL-1β content in HK-2 HUA cell model (ELISA); type: cell-based, human; conditions: only the high-dose group showing a downward trend (p < 0.01)
Method: as §3

NLRP3 [9] = test: NLRP3 content in HK-2 HUA cell model (ELISA); type: cell-based, human; conditions: gigantol 25, 50, 100 µmol/L, dose-dependent
Method: as §3

[10] = system: mice with HUA induced by potassium oxonate; test: Serum and urine UA, CRE and BUN in HUA mice; type: in vivo
Method: On day 6, the mice were transferred to a metabolic cage, given free water and diet, and 24-h urine samples were collected for the determination of UA, CRE, and BUN levels. One hour after the last administration, 2 mL of blood was taken through eyeball extraction, and the mice were killed by euthanasia. Mice were dissected and the livers and kidneys were removed.
as §1

ASC [11] = test: ASC protein expression in HK-2 cells (Western blot); conditions: for asc / β (reference protein) ratio / asc protein expression, band value: HK-2, replicates 1-3; for ASC protein level in HK-2 cells: HUA cell model
NLRP3 [12] = test: NLRP3 protein expression in kidney of HUA mice (Western blot); type: in vivo; conditions: gigantol high-dose group (20 mg/kg), vs model group, p < 0.01
[13] = rat, in vivo
Method: Whole blood was taken into heparinized tubes at predefined time points (2, 5, 10, 20, and 30 min, and 1, 2, 4, 6, 8, and 12 h) after administration, and plasma was separated by centrifugation and stored at −20°C until testing. […] Whole blood was taken into heparinized tubes at predefined time points (2, 5, 10, 20, and 30 min, and 1, 2, 4, 6, 8, and 12 h) after administration, and plasma was separated by centrifugation and stored at −20°C until testing. […] Pharmacokinetic parameters were calculated by using the pharmacokinetics software WinNonlin 8.1.

[14] = system: liver tissue in mice with HUA; test: Liver histopathology of HUA mice (HE staining); type: in vivo; conditions: 200×, gigantol 5, 10, 20 mg/kg
Excerpt: as §2

NLRP3 [15] = test: NLRP3 protein expression in HK-2 cells (Western blot); conditions: for NLRP3 / β (reference protein) ratio / NLRP3 protein expression, band value: HK-2, replicates 1-3; for NLRP3 protein level in HK-2 cells: HUA cell model
XOD [16] = conditions: HUA mice; each dose of gigantol (5, 10, 20 mg/kg); vs model group; p < 0.01, p < 0.01, p < 0.001
IL-6 [17] = test: IL-6 level in HK-2 HUA cell model (ELISA); type: cell-based, human; conditions: adenosine and XOD induction; gigantol 25, 50, 100 μmol/L
Method: as §3

Caspase-1 [18] = test: Caspase-1 protein expression in HK-2 cells (Western blot); conditions: for CASPASE / β (reference protein) ratio / CASPASE protein expression, band value: HK-2, replicates 1-3
OAT1 = OAT1 protein expression in kidney of HUA mice (Western blot); conditions: gigantol medium-dose and high-dose groups (10, 20 mg/kg), vs model group, p < 0.01
[19] = 24-h urine, after gigantol treatment
[20] = gigantol 5, 10, 20 mg/kg gavage 7 days, vs model group, high dose p < 0.001
[21] = 50 and 100 µmol/L gigantol, vs model group
[22] = gigantol intervention, especially high-dose group (p < 0.001), vs model

5-[2-(3-hydroxy-5-methoxyphenyl) ethyl]-2-methoxyphenol [gigantol]
OAT3 / β (reference protein) ratio (OAT3; 中 = gigantol 50 µmol/L): 1.0464 and 0.924 and 0.8748
OAT3 protein expression, band value (OAT3; 中 = gigantol 50 µmol/L): 181.929 and 171.604 and 166.063
OAT3 / β (reference protein) ratio (OAT3; 低 = gigantol 25 µmol/L): 0.8292 and 0.8811 and 0.9428
OAT3 protein expression, band value (OAT3; 低 = gigantol 25 µmol/L): 137.293 and 165.504 and 169.481
OAT3 / β (reference protein) ratio (OAT3; 高 = gigantol 100 µmol/L): 0.9571 and 0.9652 and 1.021
OAT3 protein expression, band value (OAT3; 高 = gigantol 100 µmol/L): 178.19 and 188.909 and 198.88
OAT3 protein level in HK-2 cells (OAT3; HUA cell model, 50 and 100 µmol/L, vs model group): significantly increased
OAT3 protein expression in HK-2 cells (OAT3; HUA cell model, gigantol 25, 50, 100 µmol/L, dose-dependent): increase
renal IL-6 level (IL-6 [1]): significantly lower
serum IL-6 level (IL-6 [1]): significantly lower
caspase-1 protein expression in kidney (caspase-1 [2]): decreased significantly
renal histopathology: glomerulus injury [3]: a trend of recovery in the injury of the glomerulus
renal histopathology: urate crystals [3]: no urate crystals in the renal tubules
xod / β (reference protein) ratio (XOD [4]; 中 = gigantol 50 µmol/L): 1.517 and 1.501 and 1.526
xod protein expression, band value (XOD [4]; 中 = gigantol 50 µmol/L): 128.129 and 199.117 and 168.261
xod / β (reference protein) ratio (XOD [4]; 低 = gigantol 25 µmol/L): 1.791 and 1.55 and 1.796
xod protein expression, band value (XOD [4]; 低 = gigantol 25 µmol/L): 141.242 and 241.421 and 177.271
xod / β (reference protein) ratio (XOD [4]; 高 = gigantol 100 µmol/L): 1.329 and 1.446 and 1.393
xod protein expression, band value (XOD [4]; 高 = gigantol 100 µmol/L): 108.633 and 187.088 and 176.298
XOD protein expression in AML12 cells (XOD [4]): significantly decreased
XOD protein expression in AML12 cells (XOD [4]; listed as Gigantol): downregulated
XOD protein expression in AML12 cells (XOD [4]; listed as gigatol): significantly reduced in a dose-dependent manner
TNF-α level in HK-2 cells (TNF-α): tended to decrease dose-dependently
UA level in AML12 cells (AML12 cells): suppressed
IL-1β level in kidney (IL-1β [5]): decreased
IL-1β level in serum (IL-1β [5]): decreased
XOD activity in AML12 cells (XOD [6]): downregulated
ASC protein expression in kidney (ASC [7]): decreased significantly
inhibitory effect on IL-1β in HK-2 cells (IL-1β [8]): relatively weak
NLRP3 in HK-2 cells (NLRP3 [9]): significantly reduced
urine BUN level [10, 19]: increased
urine CRE level [10, 19]: increased
urine UA content ([10]; 24-h urine, gigantol 5, 10, 20 mg/kg gavage, vs model group, p < 0.01): increased significantly in a dose-dependent manner
serum BUN level [10, 20]: significantly reduced
serum CRE level [10, 20]: significantly reduced
serum UA level [10, 20]: significantly reduced
asc / β (reference protein) ratio (ASC [11]; 中 = gigantol 50 µmol/L): 0.7729 and 0.7908 and 0.8759
asc protein expression, band value (ASC [11]; 中 = gigantol 50 µmol/L): 134.385 and 146.868 and 166.261
asc / β (reference protein) ratio (ASC [11]; 低 = gigantol 25 µmol/L): 0.9783 and 1.053 and 1.058
asc protein expression, band value (ASC [11]; 低 = gigantol 25 µmol/L): 161.976 and 197.704 and 190.261
asc / β (reference protein) ratio (ASC [11]; 高 = gigantol 100 µmol/L): 0.7353 and 0.6853 and 0.7512
asc protein expression, band value (ASC [11]; 高 = gigantol 100 µmol/L): 136.893 and 134.134 and 146.281
ASC protein level in HK-2 cells (ASC [11]; [21]): significantly reduced
ASC protein level in HK-2 cells (ASC [11]; [22]): decreased significantly
NLRP3 protein expression in kidney (NLRP3 [12]): decreased significantly
F [13]: 16.82%
time of second peak of blood concentration [13]: approximately 2 h
liver histopathology [14]: the atrophy of liver cells significantly improved
NLRP3 / β (reference protein) ratio (NLRP3 [15]; 中 = gigantol 50 µmol/L): 0.7212 and 0.9246 and 0.7381
NLRP3 protein expression, band value (NLRP3 [15]; 中 = gigantol 50 µmol/L): 125.385 and 171.712 and 140.12
NLRP3 / β (reference protein) ratio (NLRP3 [15]; 低 = gigantol 25 µmol/L): 0.7726 and 0.9621 and 1.043
NLRP3 protein expression, band value (NLRP3 [15]; 低 = gigantol 25 µmol/L): 127.912 and 180.721 and 187.495
NLRP3 / β (reference protein) ratio (NLRP3 [15]; 高 = gigantol 100 µmol/L): 0.5752 and 0.7261 and 0.6462
NLRP3 protein expression, band value (NLRP3 [15]; 高 = gigantol 100 µmol/L): 107.093 and 142.123 and 125.837
NLRP3 protein level in HK-2 cells (NLRP3 [15]; 25 μmol/L gigantol, vs model group): moderately reduced
NLRP3 protein level in HK-2 cells (NLRP3 [15]; [21]): significantly reduced
NLRP3 protein level in HK-2 cells (NLRP3 [15]; [22]): decreased significantly
XOD protein expression in liver (XOD [16]): significantly decreased
IL-6 level in HK-2 cells (IL-6 [17]): tended to decrease dose-dependently
CASPASE / β (reference protein) ratio (Caspase-1 [18]; 中 = gigantol 50 µmol/L): 0.976 and 0.8978 and 0.9502
CASPASE protein expression, band value (Caspase-1 [18]; 中 = gigantol 50 µmol/L): 169.696 and 166.728 and 180.371
CASPASE / β (reference protein) ratio (Caspase-1 [18]; 低 = gigantol 25 µmol/L): 0.8128 and 1.007 and 1.064
CASPASE protein expression, band value (Caspase-1 [18]; 低 = gigantol 25 µmol/L): 134.57 and 189.238 and 191.281
CASPASE / β (reference protein) ratio (Caspase-1 [18]; 高 = gigantol 100 µmol/L): 0.7864 and 0.8188 and 0.8437
CASPASE protein expression, band value (Caspase-1 [18]; 高 = gigantol 100 µmol/L): 146.411 and 160.261 and 164.281
Caspase-1 protein level in HK-2 cells (Caspase-1 [18]; HUA cell model, gigantol 25, 50, 100 µmol/L, vs model group): significantly reduced; also recorded: decreased significantly
OAT1 protein expression in kidney (OAT1): increased
